Data: patent US20220088024A1, “METHODS FOR TREATING CANCER USING TOZADENANT” (Biotie Therapies, Inc., priority 2018, published 2022)
Where “and” joins values, the source holds several entries; their conditions need not be identical. Equal entries are not always repeated.

Experiments:
[1] = system: AT-3ova CD73+ tumour (mouse breast carcinoma cell line AT-3); test: Example 1: anti-tumor responses of SYN-115 in the AT-3ova CD73+ tumour cell mouse model (tumor area); type: in vivo, C57/BL6 mice
Description: The C57BL/6 mouse breast carcinoma cell line AT-3 was obtained from Dr. Trina Stewart (Griffith University, Nathan, QLD, Australia. Tumor cell lines were transduced to express chicken ovalbumin peptide and CD73 as previously described (1, 2, 3). Tumor cells are periodically verified to be Mycoplasma negative by the Victorian Infectious Diseases References Lab (Melbourne, VIC, Australia) by PCR analysis. Tumor cells were grown in DMEM supplemented with 10% FCS, GlutaMAX, and penicillin/streptomycin. 5×10^5 cells were resuspended in PBS and injected s.c. into C57/BL6 mice in a 100 μL volume. At day 14 tumors were measured and mice were randomized into distinct treatment groups to ensure that each group had tumors of similar size at the onset of treatment. Mice were treated i.p. at days 14, 18, 22, and 26 with either isotype control (2A3; 200 μg/mouse) or anti-PD-1 mAb (RMP1-14, 200 μg/mouse) and where indicated SYN-115 (Batch 71236AA002) at the indicated dose or vehicle control once-daily via oral gavage on days 14 to 29. To calculate a dose of SYN-115, mouse weight was estimated to be 20 g per mouse. Therefore, 100 mg/kg=2 mg per mouse in 200 μL, which is equivalent to 10 mg/ml. […] Tumor sizes were determined by width * length and mice were culled when tumors reached the ethical limit of 150 mm^2.

[2] = system: AT-3ova CD73+ tumour (mouse breast carcinoma cell line AT-3); test: Example 3: anti-tumor responses of SYN-115 QD or BID in the AT-3ova CD73+ tumour cell mouse model (tumor area); type: in vivo, C57/BL6 mice; parameters: key to Raw Tumor Measurements: tumor area, width × length in mm^2
Description: The C57BL/6 mouse breast carcinoma cell line AT-3 was obtained from Dr. Trina Stewart (Griffith University, Nathan, QLD, Australia. Tumor cell lines were transduced to express chicken ovalbumin peptide and CD73 as previously described (1, 2, 3). Tumor cells are periodically verified to be Mycoplasma negative by the Victorian Infectious Diseases References Lab (Melbourne, VIC, Australia) by PCR analysis. Tumor cells were grown in DMEM supplemented with 10% FCS, GlutaMAX, and penicillin/streptomycin. 5×10^5 cells were resuspended in PBS and injected s.c. into C57/BL6 mice in a 100 μL volume. At day 14 tumors were measured and mice were randomized into distinct treatment groups to ensure that each group had tumors of similar size at the onset of treatment. Mice were treated i.p. at days 14, 18, 22, and 26 with either isotype control (2A3; 200 μg/mouse) or anti-PD-1 mAb (RMP1-14, 200 μg/mouse) and where indicated SYN-115 (Batch 71236AA002) at the indicated dose or vehicle control once or twice-daily via oral gavage on days 14 to 29. To calculate a dose of SYN-115 mouse weight was estimated to be 20 g per mouse. Therefore, 100 mg/kg=2 mg per mouse in […] which is equivalent to 10 mg/ml. To make up 40 mL, 400 milligrams of SYN-115 was weighed and added into a Falcon tube, then 1 mL of Tween 80 was added and mixed into a paste and then 39 mL of 1% Methyl Cellulose was added. The solution was vortexed and then left on a rotating mixer for at least 2 hours and maintained at 4° C. Tumor measurements were taken 2-3 times per week. Tumor sizes were determined by width * length and mice were culled when tumors reached the ethical limit of 150 mm^2.

[3] = system: B16F10 CD73 melanoma metastases; test: Example 9: number of lung tumor metastases in the B16F10 CD73 tumor mouse model; type: in vivo, C57/BL6 mice (A2A-/- or Wild-Type)
Description: The C57/BL6 mouse melanoma cell line B16F10 CD73 was cultured in DMEM supplemented with 10% FCS, GlutaMAX, and penicillin/streptomycin. Tumor cells are periodically verified to be Mycoplasma negative by the Victorian Infectious Diseases References
Lab (Melbourne, VIC, Australia) by PCR analysis. 2×10^5 cells were resuspended in PBS and injected i.v. into C57/BL6 mice (A2A^−/− or Wild-Type) in a 200 μL volume. At day 14 lungs were excised and the number of metastases counted under the dissecting microscope. Mice were dosed with either SYN-115 (Batch 71236AA002) at 100 mg/kg or vehicle control once-daily via oral gavage on days 0 to 13. To calculate a dose of SYN-115 mouse weight was estimated to be 20 g per mouse. Therefore, 100 mg/kg=2 mg per mouse in 200 μL, which is equivalent to 10 mg/ml. To make up 40 mL, 400 milligrams of SYN-115 was weighed and added into a Falcon tube, then 1 mL of Tween 80 was added and mixed into a paste and then 39 mL of 1% Methyl Cellulose was added. The solution was vortexed and then left on a rotating mixer for at least 2 hours and maintained at 4° C.

In the case of `COc1ccc(N2CCOCC2)c2sc(NC(=O)N3CCC(C)(O)CC3)nc12` [SYN-115, 4-hydroxy-4-methyl-piperidine-1-carboxylic acid (4-methoxy-7-morpholin-4-yl-benzothiazol-2-yl)-amide], the “Tumor size (width * length)” value ([1]; 2A3+SYN-115 (100 mg/kg), Day 6) is reported as 23.5 mm^2 and 27.03 mm^2 and 30.74 mm^2 and 17.5 mm^2 and 33.6 mm^2, the “Tumor size (width * length)” value ([1]; Anti-PD-1 (200 ug)+SYN-115 (100 mg/kg), Day 0) is reported as 13.76 mm^2 and 14 mm^2 and 17.2 mm^2 and 17.49 mm^2 and 26.22 mm^2 and 26.4 mm^2 and the “Tumor size (width * length)” value ([2]; 2A3 (200 ug/mouse)+SYN-115 (100 mg/kg) QD, Day 0) is reported as 19.38 mm^2 and 14.96 mm^2 and 20 mm^2 and 24.38 mm^2 and 13.26 mm^2 and 18.9 mm^2. The “Tumor size (width * length)” value ([2]; 2A3 (200 ug/mouse)+SYN-115 (100 mg/kg) QD, Day 31) was 73.1 mm^2, the “Tumor size (width * length)” value ([2]; 2A3 (200 ug/mouse)+SYN-115 (100 mg/kg) QD, Day 34) was 74.82 mm^2 and the “Tumor size (width * length)” value ([2]; 2A3 (200 ug/mouse)+SYN-115 (100 mg/kg) QD, Day 39) was 86.45 mm^2. The “Tumor size (width * length)” value ([2]; 2A3 (200 ug/mouse)+SYN-115 (100 mg/kg) QD, Day 42) was 129.87 mm^2, the “Raw Tumor Measurements” value ([2]; Anti-PD-1 (200 ug)+SYN-115 (30 mg/kg) BID, Day 0) was 12.6 and 15.54 and 22 and 16.38 and 22.68 and 18.36 and the “Raw Tumor Measurements” value ([2]; Anti-PD-1 (200 ug)+SYN-115 (30 mg/kg) BID, Day 17) was 44.08 and 44.22 and 73.92 and 38.86 and 63.24 and 66.64. The “Raw Tumor Measurements” value ([2]; Anti-PD-1 (200 ug)+SYN-115 (30 mg/kg) BID, Day 31) was 111.28 and 64.74, the “Raw Tumor Measurements” value ([2]; Anti-PD-1 (200 ug)+SYN-115 (30 mg/kg) BID, Day 34) was 73.1 and the “Raw Tumor Measurements” value ([2]; Anti-PD-1 (200 ug)+SYN-115 (30 mg/kg) BID, Day 39) was 69.6. For the same compound, the “Raw Tumor Measurements” value ([2]; Anti-PD-1 (200 ug)+SYN-115 (30 mg/kg) BID, Day 42) was 99.51, the “Raw Tumor Measurements” value ([2]; Anti-PD-1 (200 ug)+SYN-115 (30 mg/kg) BID, Day 44) was 114.33 and the “Tumor size (width * length)” value ([2]; Anti-PD-1 (200 ug)+SYN-115 (30 mg/kg) QD, Day 28) was 58.5 mm^2 and 63.99 mm^2 and 113.1 mm^2. For the same compound, the “Tumor size (width * length)” value ([2]; Anti-PD-1 (200 ug)+SYN-115 (30 mg/kg) QD, Day 31) was 57.76 mm^2 and 74.82 mm^2, the “Tumor size (width * length)” value ([2]; Anti-PD-1 (200 ug)+SYN-115 (30 mg/kg) QD, Day 34) was 72.8 mm^2 and 93.06 mm^2 and the “Tumor size (width * length)” value ([2]; Anti-PD-1 (200 ug)+SYN-115 (30 mg/kg) QD, Day 39) was 83.42 mm^2 and 127 mm^2. For the same compound, the “Tumor size (width * length)” value ([2]; Anti-PD-1 (200 ug)+SYN-115 (30 mg/kg) QD, Day 42) was 127.53 mm^2, the “Raw Tumor Measurements” value ([2]; Anti-PD-1 (200 ug)+SYN-115 (100 mg/kg) BID, Day 0) was 16.28 and 15.96 and 20.46 and 16.8 and 24.12 and 12.24 and the “Raw Tumor Measurements” value ([2]; Anti-PD-1 (200 ug)+SYN-115 (100 mg/kg) BID, Day 22) was 49.92 and 83.7 and 67.45 and 51.48 and 75.64 and 82.39. For the same compound, the “Raw Tumor Measurements” value ([2]; Anti-PD-1 (200 ug)+SYN-115 (100 mg/kg) BID, Day 28) was 66.96 and 98.79 and 88.4 and 132.3 and 118.34, the “Raw Tumor Measurements” value ([2]; Anti-PD-1 (200 ug)+SYN-115 (100 mg/kg) BID, Day 31) was 79.38 and 102.08 and 109.44 and the “Raw Tumor Measurements” value ([2]; Anti-PD-1 (200 ug)+SYN-115 (100 mg/kg) BID, Day 34) was 99.36. The “Raw Tumor Measurements” value ([2]; Anti-PD-1 (200 ug)+SYN-115 (100 mg/kg) BID, Day 39) was 103.55, the “Raw Tumor Measurements” value ([2]; Anti-PD-1 (200 ug)+SYN-115 (100 mg/kg) QD, Day 0) was 14.82 and 14.76 and 15.17 and 15.12 and 23.78 and the “Raw Tumor Measurements” value ([2]; Anti-PD-1 (200 ug)+SYN-115 (100 mg/kg) QD, Day 9) was 29.07 and 25 and 29.68 and 26 and 34.78 and 29.25. The “Raw Tumor Measurements” value ([2]; Anti-PD-1 (200 ug)+SYN-115 (100 mg/kg) QD, Day 13) was 32.45 and 39.33 and 38.19 and 25.48 and 40.7 and 33.5, the “Raw Tumor Measurements” value ([2]; Anti-PD-1 (200 ug)+SYN-115 (100 mg/kg) QD, Day 15) was 39.33 and 42 and 44.2 and 32.86 and 50.74 and 25.85 and the “Raw Tumor Measurements” value ([2]; Anti-PD-1 (200 ug)+SYN-115 (100 mg/kg) QD, Day 17) was 39.53 and 44.4 and 48 and 31.35 and 52.92 and 44.73. The “Raw Tumor Measurements” value ([2]; Anti-PD-1 (200 ug)+SYN-115 (100 mg/kg) QD, Day 20) was 48.28 and 61.56 and 66.6 and 48.99 and 61.2 and 51.2, the “Raw Tumor Measurements” value ([2]; Anti-PD-1 (200 ug)+SYN-115 (100 mg/kg) QD, Day 24) was 51.83 and 72.98 and 86.92 and 53.96 and 85.05 and 46.8 and the “Raw Tumor Measurements” value ([2]; Anti-PD-1 (200 ug)+SYN-115 (100 mg/kg) QD, Day 28) was 55.2 and 90.09 and 97.9 and 77.44 and 95.04 and 77.19. The “Raw Tumor Measurements” value ([2]; Anti-PD-1 (200 ug)+SYN-115 (100 mg/kg) QD, Day 31) was 74.82 and 128.76 and 81.7 and 101.37 and 79.9, the “Raw Tumor Measurements” value ([2]; Anti-PD-1 (200 ug)+SYN-115 (100 mg/kg) QD, Day 34) was 79.05 and 95.06 and 81.32 and the “Raw Tumor Measurements” value ([2]; Anti-PD-1 (200 ug)+SYN-115 (100 mg/kg) QD, Day 39) was 81.9 and 104.86 and 82.95. The “Raw Tumor Measurements” value ([2]; Anti-PD-1 (200 ug)+SYN-115 (100 mg/kg) QD, Day 42) was 127.33 and 132.24, the “Number of Tumor Metastases (lung), individual mice” value ([3]; 100 mg/kg once-daily oral gavage days 0 to 13, counted day 14, Batch 71236AA002) was 53 and 108 and 107 and 61 and 72 and 64 and 40 and 24 and 56 and 82 and the “Efficacy on tumor metastases” value ([3]; SYN-115 100 mg/kg once-daily oral, days 0 to 13) was “No efficacy”.
